Consider 24 compounds from ChEMBL document CHEMBL1240509, “Modulators of the hedgehog signaling pathway” (Bioorg Med Chem, 2010).

The nature of the first test: Agonist activity at hedgehog receptor. The class given is functional.
Conditions: not given; call rule not given here
`CN[C@H]1CC[C@H](N(Cc2cccc(-c3ccncc3)c2)C(=O)c2sc3ccccc3c2Cl)CC1` returned a concentration giving a half-maximal response (EC50) of 3000 nM.
Still for that read-out and setting: then `CC(C)CC[C@H](O)[C@@H](C)[C@H]1CC[C@H]2[C@@H]3CC=C4C[C@@H](O)CC[C@]4(C)[C@H]3CC[C@]12C`, with 200 nM; and `C[C@H](CCCC(C)(C)O)[C@H]1CC[C@H]2[C@@H]3CC=C4C[C@@H](O)CC[C@]4(C)[C@H]3CC[C@]12C`, with 1000 nM; and `CC(C)[C@@H](O)CC[C@@H](C)[C@H]1CC[C@H]2[C@@H]3CC=C4C[C@@H](O)CC[C@]4(C)[C@H]3CC[C@]12C`, with 3000 nM.
The same measure, in the same setting: then `CC(C)CCC[C@](C)(O)[C@H]1CC[C@H]2[C@@H]3CC=C4C[C@@H](O)CC[C@]4(C)[C@H]3CC[C@@]21C`, with 100 nM; and `c1ccc2c(Oc3nc(Nc4ccc(N5CCOCC5)cc4)c4ncn(C5CCCCC5)c4n3)cccc2c1` [PURMORPHAMINE], with 1000 nM.

The next test can be described thus: Inhibition of hedgehog receptor mediated Gli transcription.
Conditions: not given
For `Cc1c([C@H](C)[C@@H]2NC[C@@H](C)C[C@H]2O)ccc2c1C[C@H]1[C@H]2CC=C2C[C@@H](O)CC[C@@]21C` [VERATRAMINE], the EC50 result was “Not Active”.

The same test, now with this note: read-out: EC50.
In the case of `CC1=C2C[C@H]3[C@@H](CC=C4C[C@@H](O)CC[C@@]43C)[C@@H]2CC[C@]12O[C@@H]1C[C@H](C)CN[C@H]1[C@H]2C` [CYCLOPAMINE], the EC50 stood at 300 nM.
Still for that read-out and setting: the same measure for `CC1=C2C[C@H]3[C@@H](CC=C4C[C@@H](O[C@@H]5O[C@H](CO)[C@@H](O)[C@H](O)[C@H]5O)CC[C@@]43C)[C@@H]2CC[C@]12O[C@@H]1C[C@H](C)CN[C@H]1[C@H]2C` [CYCLOPOSINE]: greater than 700 nM; for `CC1=C2C(=O)[C@H]3[C@@H](CC=C4C[C@@H](O)CC[C@@]43C)[C@@H]2CC[C@]12O[C@@H]1C[C@H](C)CN[C@H]1[C@H]2C` [JERVINE]: 500 nM.

The nature of another test: Inhibition of hedgehog receptor mediated Ptch1 transcription.
Conditions: not given
In turn, `CC1=C2C[C@H]3[C@@H](CC=C4C[C@@H](O)CC[C@@]43C)[C@@H]2CC[C@]12O[C@@H]1C[C@H](C)CN[C@H]1[C@H]2C` [CYCLOPAMINE] registered an EC50 of 300 nM.

The next test is described as follows: Antagonist activity at hedgehog receptor.
Conditions: not given
The class given is functional.
For `CC1=C2C[C@H]3[C@@H](CC=C4CC(=O)CC[C@@]43C)[C@@H]2CC[C@]12O[C@@H]1C[C@H](C)CN(CCNC(=O)CCCCCNC(=O)CCc3ccccc3)[C@H]1[C@H]2C`, half-maximal inhibition (IC50) was put at 20 nM.
Same read-out and setting: the same measure for `CC1=C2C[C@H]3[C@@H](CC[C@@H]4C[C@H](NS(C)(=O)=O)CC[C@@]43C)[C@@H]2CC[C@@]2(C1)O[C@@H]1C[C@H](C)CN[C@@H]1[C@H]2C`: 7 nM; for `CC1=C2C[C@H]3[C@@H](CC[C@@H]4Cc5n[nH]cc5C[C@@]43C)[C@@H]2CC[C@@]2(C1)O[C@@H]1C[C@H](C)CN[C@@H]1[C@H]2C`: 10 nM; for `CC1=C2C[C@H]3[C@@H](CC[C@@H]4CNC(=O)CC[C@@]43C)[C@@H]2CC[C@@]2(C1)O[C@@H]1C[C@H](C)CN[C@@H]1[C@H]2C`: 30 nM.
Compound `CCCN[C@H]1CC[C@H](N(Cc2cccc(-c3ccncc3)c2)C(=O)c2sc3ccccc3c2Cl)CC1` returned a half-maximal inhibitory concentration (IC50) of 20 nM.
Still for that read-out and setting: the same measure for `COCCOC(=O)C1=C(C)NC2=C(C(=O)CC(c3ccccc3OC)C2)C1c1cccc(O)c1` (stereo not given): 1500 nM; for `CN(C)c1ccccc1CN1CCCN(Cc2ccccc2N(C)C)C1c1ccncc1`: 5000 nM; for `c1cc(-c2sc(-c3ccncc3)c(-c3ccncc3)c2-c2ccncc2)ccn1`: 5000 nM.
The compound `CCOc1cc(C(=O)Nc2ccc(Cl)c(-c3nc4ccccc4[nH]3)c2)cc(OCC)c1OCC` displayed an IC50 of 30 nM.
Regarding `CC1=C2C[C@H]3[C@@H](CCC4=CC(=O)CC[C@@]43C)[C@@H]2CC[C@@]2(C1)O[C@@H]1C[C@H](C)CNC1[C@H]2C` (single isomer, unassigned), it took 200 nM to reach half-maximal inhibition (IC50). Against the preceding compound, the IC50 is about 6.7-fold higher.
The same measure, in the same setting: the same measure for `CCC(C)n1ncn(-c2ccc(N3CCN(c4ccc(OCC5COC(Cn6cncn6)(c6ccc(Cl)cc6Cl)O5)cc4)CC3)cc2)c1=O` (stereo not given) [ITRACONAZOLE]: 800 nM; for `C[C@@]12C[C@H]3OC(=O)[C@@H]1CO[C@]14O[C@]5([C@H]2C1=O)[C@@](O)(CC[C@H]1[C@H]4C[C@H]2O[C@]24CC=CC(=O)[C@]14C)C(=O)O[C@@]35C` [PHYSALIN F]: 660 nM; for `O=C(C[C@@H]1C/C=C/CCC(=O)O[C@H](c2ccccc2)CNC1=O)NCc1ccc(Cl)cc1` [ROBOTNIKININ]: 3100 nM.
The same measure, in the same setting: the same measure for `CS(=O)(=O)c1ccc(C(=O)Nc2ccc(Cl)c(-c3ccccn3)c2)c(Cl)c1` [VISMODEGIB]: 13 nM.

The EC50 is the concentration giving half of the maximal effect. Broadly, the IC50 is the point on the concentration scale where inhibition reaches its midpoint. Low readings indicate greater potency, high ones weaker potency.
